# From patent US20130029956A1, “NEW METHOD” (ASTRAZENECA AB, priority 1997, published 2013)
# Marks after values point to notes of the source that are not given here.
# Legend:
# Type in all cases: in vivo, human (children six months to eight years)
# asthmatic children [1] = test: Phase III study of three dose levels of once-a-day budesonide nebulizing suspension and placebo in asthmatic children (Example 1); details: for Asthma scores: Daytime / Asthma scores: Nighttime: 0-3 score; for proportion of patients discontinuing due to worsening asthma: placebo 23%; for total proportion of patients who were discontinued: placebo 28%
# Procedure: The objectives of the study were to compare the relative efficacy and safety of a nebulizing suspension of budesonide (containing 0.25 mg, 0.5 mg, or 1.0 mg of budesonide per dose), administered once a day, in pediatric asthmatic patients aged six months to eight years.
# (§1) This was a multicenter, randomized double-blind, placebo-controlled, parallel-group study.
# Patients were asthmatic children who had not been treated with steroids in the 30 days prior to initiation of the study treatment.
# Budesonide was administered once per day as a nebulized suspension, at 0.25 mg, 0.5 mg, or 1.0 mg per administration, via a Pari LC-Jet Plus® nebulizer connected to a Pari Master® compressor (Pari Respiratory Equipment, Inc., Richmond, Va.) with a face mask or a mouth piece. The placebo was the solvent used for the budesonide suspension (0.1 mg disodium edetate, 8.5 mg NaCl, 0.2 mg polysorbate, 0.28 mg anhydrous citric acid, and 0.5 mg sodium citrate per 1 ml water) but without budesonide.
# Primary efficacy variables were mean changes from baseline in daytime and nighttime asthma symptom scores over the 12 week treatment phase. The symptom scores are based on the subjective evaluation by the patients or their parents based on a 0-3 rating system in which 0=no symptoms, 1=mild symptoms, 2=moderate symptoms, and 3=severe symptoms.
# Secondary efficacy variables were: (a) patient outcomes, including the proportion of patients who were discontinued from the study for any reason and the proportion of patients who were discontinued from this study due to worsening asthma; (b) the number of days breakthrough (bronchodilator) medication was used; (c) spirometry test variables, including FEV1, FEF25-75 (forced expiratory flow during the middle half of the forced vital capacity in liters per second) and FVC (forced vital capacity in liters), performed at clinic visits in the subset of patients capable of performing spirometry testing; (d) PEF (peak expiratory flow in liters per minute) measured daily in the morning and evening in the subset of patients capable of performing PEF testing; (e) changes in health status measurements, including the Modified Functional Status II Scale Child Health Status Scale and the RAND General Health Index; and (f) differences in asthma-related health care utilization and indirect health care costs.
# (§2) Safety variables were: (a) reported adverse effects that could be due to the drug; (b) morning basal and post-ACTH-simulation effects on plasma cortisol levels (HPA-axis function); and (c) changes in physical examinations, vital signs, and clinical laboratory tests, including oropharyngeal and nasal fungal cultures.
# (§3) Analysis of variance was used to compare differences between treatment groups for all efficacy variables, with the exception of patient outcomes, which were analyzed using Fisher's exact test. Analysis of variance was also used for morning basal and post-ACTH-simulation effects on plasma cortisol levels. Descriptive statistics were used to present all other safety data.
# Results of nighttime and daytime asthma symptom scores, and the number of days of use of breakthrough medication are presented in Table 1. Data are expressed as the adjusted mean change from baseline over the 12-week treatment phase, all patients treated, last value carried forward (*p≦0.050, **p≦0.010, and ***p≦0.001 versus placebo (PBO); “n” is number of patients). Thus improvements are indicated by negative values of these variables.
# asthmatic children [2] = test: Phase III study of four dose regimens of budesonide nebulizing suspension and placebo in asthmatic children (Example 2); design: Nighttime Asthma Symptom Score: scale not given here; FEV1: unit not given here; details: for FEV1 / Evening PEF / Morning PEF / Daytime Asthma Symptom Score / Nighttime Asthma Symptom Score / Number of Days Use of Breakthrough Medication: adjusted mean change from baseline over 12 weeks; for proportion of patients discontinuing due to worsening asthma: placebo 26.3%; for total proportion of patients who were discontinued: placebo 39%
# Procedure: The objectives of the study were to compare the relative efficacy and safety of budesonide in a nebulizing suspension (0.25 mg administered once a day (QD), 0.25 mg administered twice per day (BID), 0.5 mg BID or 1.0 mg QD) in pediatric asthmatic patients aged six months to eight years.
# as §1
# Patients were mild to moderate asthmatic children aged six months to eight years of age with a diagnosis of asthma as defined by the National Institutes of Health of the U.S. Department of Health and Human Services, including:
# (a) exacerbations of cough and/or wheezing on a frequent basis, including nocturnal asthma, with infrequent severe exacerbations during the last six months; (b) daily use of at least one chronic asthma medication (which could have been an inhaled GCS) with periodic use of breakthrough medication for at least three months prior to Visit 1; and (c) basal FEV1 of […] of predicted and reversibility of […] at 15±5 minutes after a standard dose of inhaled bronchodilator for patients capable of performing consistent PFTs. […]
# Primary efficacy variables were mean changes from baseline in daytime and nighttime asthma symptom scores over the 12-week treatment phase. The symptom scores were obtained as in Example 1.
# Secondary efficacy variables were: (a) the number of days breakthrough (bronchodilator) medication was used; (b) spirometry test variables, including FEV1, FEF25-75, and FVC performed at clinic visits in the subset of patients capable of performing spirometry testing; (c) PEF measured daily in the morning and evening in the subset of patients capable of performing PEFs; and (d) proportion of patient discontinuations from the study.
# as §2, with “adverse events” for “adverse effects”, “(HPA-axis function) in a subset of patients;” for “(HPA-axis function);”, “vital signs” for “vital signs,”
# as §3, with “patient discontinuations from the study,” for “patient outcomes,”, “which was” for “which were”
# A total of 471 patients were evaluated for efficacy (all patients treated). Data are expressed as the adjusted mean change from baseline over the 12-week treatment phase, all patients treated, last value carried forward (*p≦0.050; **p≦0.010 and ***p≦0.001, versus placebo; “n” is the number of patients).
# [3] = tested on: plasma cortisol levels (HPA-axis function); test: Basal and post-ACTH-stimulated plasma cortisol levels, Example 1; details: 0.25, 0.5, 1.0 mg once a day; baseline to week 12 versus placebo
# Procedure: as §2, §3
# […] is stimulated by injection (intravenous for young children and intramuscular for infants) of corticotropin one hour before morning blood sampling.
# [4] = tested on: plasma cortisol levels (HPA-axis function); test: Basal and post-ACTH-stimulated plasma cortisol levels, Example 2; details: 0.25 mg QD, 0.25 mg BID, 0.5 mg BID, 1.0 mg QD; baseline to week 12 versus placebo
# From the text: as §2, with “adverse events” for “adverse effects”, “(HPA-axis function) in a subset of patients;” for “(HPA-axis function);”, “vital signs” for “vital signs,”
# as §3, with “patient discontinuations from the study,” for “patient outcomes,”, “which was” for “which were”
# [5] = 0.25 mg once a day nebulized, adjusted mean change from baseline over 12 weeks, n = 91
# [6] = 0.5 mg once a day nebulized, adjusted mean change from baseline over 12 weeks, n = 82
# [7] = 1.0 mg once a day nebulized, adjusted mean change from baseline over 12 weeks, n = 93
# [8] = 0.25 mg BID, n = 34, no unit in table
# [9] = 0.5 mg BID, n = 29, no unit in table
# [10] = 1.0 mg QD, n = 34, no unit in table
smiles,measurement,setting,value
"CCCC1O[C@@H]2C[C@H]3[C@@H]4CCC5=CC(=O)C=C[C@]5(C)[C@H]4[C@@H](O)C[C@]3(C)[C@]2(C(=O)CO)O1 (stereo partly drawn) [Budesonide, budesonide]",Asthma scores: Daytime,asthmatic children [1]; [5],−0.57**
same,Asthma scores: Nighttime,asthmatic children [1]; [5],−0.49***
same,FEV1,"asthmatic children [1]; 0.25 mg once a day, adjusted mean change from baseline over 12 weeks, n = 29",-0.01 L
same,Morning PEF,"asthmatic children [1]; 0.25 mg once a day, adjusted mean change from baseline over 12 weeks, n = 44",14.4 L/min
same,Days of use of bronchodilator,"asthmatic children [1]; 0.25 mg once a day, adjusted mean change from baseline over 12 weeks, n = 91",−6.26* days
same,proportion of patients discontinuing due to worsening asthma,asthmatic children [1]; 0.25 mg once a day,14%
same,total proportion of patients who were discontinued,asthmatic children [1]; 0.25 mg once a day,19%
same,Asthma scores: Daytime,asthmatic children [1]; [6],−0.46*
same,Asthma scores: Nighttime,asthmatic children [1]; [6],−0.42**
same,FEV1(L),"asthmatic children [1]; 0.5 mg once a day, adjusted mean change from baseline over 12 weeks, n = 28",0.03* L
same,Morning PEF,"asthmatic children [1]; 0.5 mg once a day, adjusted mean change from baseline over 12 weeks, n = 41",6.5 L/min
same,Days of use of bronchodilator,"asthmatic children [1]; 0.5 mg once a day, adjusted mean change from baseline over 12 weeks, n = 82",−5.31* days
same,proportion of patients discontinuing due to worsening asthma,asthmatic children [1]; 0.5 mg once a day,17%
same,total proportion of patients who were discontinued,asthmatic children [1]; 0.5 mg once a day,24%
same,Asthma scores: Daytime,asthmatic children [1]; [7],−0.50*
same,Asthma scores: Nighttime,asthmatic children [1]; [7],−0.42**
same,FEV1(L),"asthmatic children [1]; 1.0 mg once a day, adjusted mean change from baseline over 12 weeks, n = 33",0.03* L
same,Morning PEF,"asthmatic children [1]; 1.0 mg once a day, adjusted mean change from baseline over 12 weeks, n = 55",10.9 L/min
same,Days of use of bronchodilator,"asthmatic children [1]; 1.0 mg once a day, adjusted mean change from baseline over 12 weeks, n = 93",−5.98* days
same,proportion of patients discontinuing due to worsening asthma,asthmatic children [1]; 1.0 mg once a day,13%
same,total proportion of patients who were discontinued,"asthmatic children [1]; 1.0 mg once a day, p=0.020",14%
same,vital signs or physical examination differences between treatment groups,asthmatic children [1]; in vivo,no clinically relevant differences
same,clinically significant changes in nasal or oral fungal cultures between treatment groups,"asthmatic children [1]; three doses once a day, 12 weeks",no clinically relevant differences
same,FEV1,"asthmatic children [2]; 0.25 mg BID, n = 33, no unit in table",0.03
same,Evening PEF,asthmatic children [2]; [8],19.2* ^
same,Morning PEF,asthmatic children [2]; [8],23.0**
same,Daytime Asthma Symptom Score,"asthmatic children [2]; 0.25 mg BID, n = 97",−0.40*
same,Nighttime Asthma Symptom Score,"asthmatic children [2]; 0.25 mg BID, n = 97",−0.49***
same,Number of Days Use of Breakthrough Medication,"asthmatic children [2]; 0.25 mg BID, n = 97",−5.22*** days
same,proportion of patients discontinuing due to worsening asthma,"asthmatic children [2]; 0.25 mg BID, p=0.029",13.1%
same,total proportion of patients who were discontinued,asthmatic children [2]; 0.25 mg BID,21%
same,FEV1,"asthmatic children [2]; 0.25 mg QD, n = 31, no unit in table",0.07
same,Evening PEF,"asthmatic children [2]; 0.25 mg QD, n = 32, no unit in table",16.8*
same,Morning PEF,"asthmatic children [2]; 0.25 mg QD, n = 32, no unit in table (baseline PEF in L/min)",10.9
same,Daytime Asthma Symptom Score,"asthmatic children [2]; 0.25 mg QD, n = 92",−0.28
same,Nighttime Asthma Symptom Score,"asthmatic children [2]; 0.25 mg QD, n = 93",−0.28
same,Number of Days Use of Breakthrough Medication,"asthmatic children [2]; 0.25 mg QD, n = 93",−4.39* days
same,proportion of patients discontinuing due to worsening asthma,asthmatic children [2]; 0.25 mg QD,16.0%
same,total proportion of patients who were discontinued,asthmatic children [2]; 0.25 mg QD,21%
same,Evening PEF,asthmatic children [2]; [9],21.0**
same,FEV1,asthmatic children [2]; [9],0.17*
same,Morning PEF,asthmatic children [2]; [9],24.8**
same,Daytime Asthma Symptom Score,"asthmatic children [2]; 0.5 mg BID, n = 96",−0.46**
same,Nighttime Asthma Symptom Score,"asthmatic children [2]; 0.5 mg BID, n = 96",−0.42**
same,Number of Days Use of Breakthrough Medication,"asthmatic children [2]; 0.5 mg BID, n = 96",−4.92** days
same,proportion of patients discontinuing due to worsening asthma,asthmatic children [2]; 0.5 mg BID,15.3%
same,total proportion of patients who were discontinued,asthmatic children [2]; 0.5 mg BID,19%
same,Evening PEF,asthmatic children [2]; [10],14.1
same,FEV1,asthmatic children [2]; [10],0.11
same,Morning PEF,asthmatic children [2]; [10],17.1*
same,Daytime Asthma Symptom Score,"asthmatic children [2]; 1.0 mg QD, n = 93",−0.37*
same,Nighttime Asthma Symptom Score,"asthmatic children [2]; 1.0 mg QD, n = 93",−0.40**
same,Number of Days Use of Breakthrough Medication,"asthmatic children [2]; 1.0 mg QD, n = 93",−4.38* days
same,proportion of patients discontinuing due to worsening asthma,asthmatic children [2]; 1.0 mg QD,21.1%
same,total proportion of patients who were discontinued,asthmatic children [2]; 1.0 mg QD,31%
same,number of patients with clinically significant changes in nasal or oral fungal cultures between treatment groups,"asthmatic children [2]; four regimens, 12 weeks",no apparent differences
same,"type, incidence or severity of adverse events compared to placebo",asthmatic children [2]; in vivo,no clinically relevant differences
same,vital signs or physical examination outcomes between treatment groups,asthmatic children [2]; in vivo,no clinically relevant differences
same,HPA-axis suppression (basal and post-ACTH-stimulated plasma cortisol),[3],no evidence of HPA-axis suppression
same,HPA-axis suppression (basal and post-ACTH-stimulated plasma cortisol),[4],no evidence of HPA-axis suppression
